Assay results published in ChEMBL document CHEMBL3046025, “Fungitoxic Properties of N-Phenylformamidoximes in Control of Benzimidazole-Resistant Isolates of Fungi” (1992).

What was measured:
Type in all cases: functional
[1] = test system: Botrytis cinerea; assay: Antifungal activity against Benzimidalzole-resistant Botryotinia fuckeliana isolate Bc-44 infected kidney bean leaves at 12.5 ppm treated as foliar application followed by incubation for 7 days in green house condition
[2] = test system: Botrytis cinerea; assay: Antifungal activity against Benzimidalzole-resistant Botryotinia fuckeliana isolate Bc-44 infected kidney bean leaves at 50 ppm treated as foliar application followed by incubation for 7 days in green house condition
[3] = test system: Botrytis cinerea; assay: Antifungal activity against Benzimidalzole-resistant Botryotinia fuckeliana isolate Bc-44 infected kidney bean leaves at 200 ppm treated as foliar application followed by incubation for 7 days in green house condition
[4] = test system: Botrytis cinerea; assay: Antifungal activity against Benzimidalzole-resistant Botryotinia fuckeliana isolate Bc-44 infected kidney bean leaves at 50 ppm applied as soil drench 3 days prior to inoculation
[5] = test system: Botrytis cinerea; assay: Antifungal activity against Benzimidalzole-resistant Botryotinia fuckeliana isolate Bc-44 infected kidney bean leaves at 200 ppm applied as soil drench 3 days prior to inoculation
[6] = test system: Botrytis cinerea; assay: Antifungal activity against Benzimidalzole-sensitive Botryotinia fuckeliana isolate Bc-9 infected compound-treated kidney bean leaves at 12.5 ppm after 4 days
[7] = test system: Botrytis cinerea; assay: Antifungal activity against Benzimidalzole-sensitive Botryotinia fuckeliana isolate Bc-9 infected compound-treated kidney bean leaves at 50 ppm after 4 days
[8] = test system: Botrytis cinerea; assay: Antifungal activity against Benzimidalzole-sensitive Botryotinia fuckeliana isolate Bc-9 infected compound-treated kidney bean leaves at 200 ppm after 4 days
[9] = test system: Botrytis cinerea; assay: Antifungal activity against Benzimidalzole-resistant Botryotinia fuckeliana isolate Bc-44 infected compound-treated kidney bean leaves at 12.5 ppm after 4 days
[10] = test system: Botrytis cinerea; assay: Antifungal activity against Benzimidalzole-resistant Botryotinia fuckeliana isolate Bc-44 infected compound-treated kidney bean leaves at 50 ppm after 4 days
[11] = test system: Botrytis cinerea; assay: Antifungal activity against Benzimidalzole-resistant Botryotinia fuckeliana isolate Bc-44 infected compound-treated kidney bean leaves at 200 ppm after 4 days
[12] = test system: Botrytis cinerea; assay: Antifungal activity against Benzimidalzole-resistant Botryotinia fuckeliana isolate Bc-20 infected compound-treated kidney bean leaves at 3.1 ppm after 4 days
[13] = test system: Botrytis cinerea; assay: Antifungal activity against Benzimidalzole-resistant Botryotinia fuckeliana isolate Bc-20 infected compound-treated kidney bean leaves at 12.5 ppm after 4 days
[14] = test system: Botrytis cinerea; assay: Antifungal activity against Benzimidalzole-resistant Botryotinia fuckeliana isolate Bc-20 infected compound-treated kidney bean leaves at 200 ppm after 4 days
[15] = test system: Botrytis cinerea; assay: Antifungal activity against Benzimidalzole-resistant Botryotinia fuckeliana isolate Bc-20 infected compound-treated kidney bean leaves at 50 ppm after 4 days
[16] = test system: Botrytis cinerea; assay: Antifungal activity against Benzimidalzole-sensitive Botryotinia fuckeliana isolate Bc-9 infected compound-treated kidney bean leaves at 3.1 ppm after 4 days
[17] = test system: Botrytis cinerea; assay: Antifungal activity against Benzimidalzole-resistant Botryotinia fuckeliana isolate Bc-44 infected kidney bean leaves at 3.1 ppm 24 hr post-infection measured after 3 days
[18] = test system: Botrytis cinerea; assay: Antifungal activity against Benzimidalzole-resistant Botryotinia fuckeliana isolate Bc-44 infected kidney bean leaves at 12.5 ppm 24 hr post-infection measured after 3 days
[19] = test system: Botrytis cinerea; assay: Antifungal activity against Benzimidalzole-resistant Botryotinia fuckeliana isolate Bc-44 infected kidney bean leaves at 50 ppm 24 hr post-infection measured after 3 days
[20] = test system: Botrytis cinerea; assay: Antifungal activity against Benzimidalzole-resistant Botryotinia fuckeliana isolate Bc-44 infected kidney bean leaves at 200 ppm 24 hr post-infection measured after 3 days
[21] = test system: Botrytis cinerea; assay: Antifungal activity against Benzimidalzole-resistant Botryotinia fuckeliana isolate Bc-44 infected compound-treated kidney bean leaves at 3.1 ppm after 4 days
[22] = test system: Botrytis cinerea; assay: Antifungal activity against Benzimidalzole-sensitive Botryotinia fuckeliana isolate Bc-9 infected kidney bean leaves at 12.5 ppm 24 hr post-infection measured after 3 days
[23] = test system: Cercospora beticola; assay: Antifungal activity against Benzimidalzole-sensitive Cercospora beticola isolate 18-1 infected in sugar beet seedlings at 3.1 ppm 24 hr-post inoculation
[24] = test system: Cercospora beticola; assay: Antifungal activity against Benzimidalzole-sensitive Cercospora beticola isolate 18-1 infected in sugar beet seedlings at 12.5 ppm 24 hr-post inoculation
[25] = test system: Cercospora beticola; assay: Antifungal activity against Benzimidalzole-sensitive Cercospora beticola isolate 18-1 infected in sugar beet seedlings at 50 ppm 24 hr-post inoculation
[26] = test system: Cercospora beticola; assay: Antifungal activity against Benzimidalzole-sensitive Cercospora beticola isolate 18-1 infected in sugar beet seedlings at 200 ppm 24 hr-post inoculation
[27] = test system: Botrytis cinerea; assay: Antifungal activity against Benzimidalzole-sensitive Botryotinia fuckeliana isolate Bc-9 infected kidney bean leaves at 200 ppm applied as soil drench 3 days prior to inoculation
[28] = test system: Botrytis cinerea; assay: Antifungal activity against Benzimidalzole-sensitive Botryotinia fuckeliana isolate Bc-9 infected kidney bean leaves at 200 ppm treated as foliar application followed by incubation for 7 days in green house condition
[29] = test system: Cercospora beticola; assay: Antifungal activity against Benzimidalzole-sensitive Cercospora beticola isolate 18-1 infected in sugar beet seedlings at 200 ppm applied as soil drench 3 days prior to inoculation
[30] = test system: Cercospora beticola; assay: Antifungal activity against Benzimidalzole-sensitive Cercospora beticola isolate 18-1 infected in sugar beet seedlings at 12.5 ppm treated as foliar application 7 days prior to inoculation
[31] = test system: Cercospora beticola; assay: Antifungal activity against Benzimidalzole-sensitive Cercospora beticola isolate 18-1 infected in sugar beet seedlings at 50 ppm treated as foliar application 7 days prior to inoculation
[32] = test system: Cercospora beticola; assay: Antifungal activity against Benzimidalzole-sensitive Cercospora beticola isolate 18-1 infected in sugar beet seedlings at 200 ppm treated as foliar application 7 days prior to inoculation
[33] = test system: Cercospora beticola; assay: Antifungal activity against Benzimidalzole-sensitive Cercospora beticola isolate 18-1 infected in compound-treated sugar beet seedlings at 200 ppm after 12 days
[34] = test system: Cercospora beticola; assay: Antifungal activity against Benzimidalzole-sensitive Cercospora beticola isolate 18-1 infected in compound-treated sugar beet seedlings at 50 ppm after 12 days
[35] = test system: Cercospora beticola; assay: Antifungal activity against Benzimidalzole-sensitive Cercospora beticola isolate 18-1 infected in compound-treated sugar beet seedlings at 12.5 ppm after 12 days
[36] = test system: Botrytis cinerea; assay: Antifungal activity against Benzimidalzole-sensitive Botryotinia fuckeliana isolate Bc-9 infected kidney bean leaves at 50 ppm 24 hr post-infection measured after 3 days
[37] = test system: Botrytis cinerea; assay: Antifungal activity against Benzimidalzole-sensitive Botryotinia fuckeliana isolate Bc-9 infected kidney bean leaves at 200 ppm 24 hr post-infection measured after 3 days
[38] = test system: Cercospora beticola; assay: Antifungal activity against Benzimidalzole-resistant Cercospora beticola isolate 18-2 infected in compound-treated sugar beet seedlings at 50 ppm after 12 days
[39] = test system: Cercospora beticola; assay: Antifungal activity against Benzimidalzole-resistant Cercospora beticola isolate 18-2 infected in compound-treated sugar beet seedlings at 200 ppm after 12 days
[40] = test system: Cercospora beticola; assay: Antifungal activity against Benzimidalzole-resistant Cercospora beticola isolate Cb-19 infected in compound-treated sugar beet seedlings at 50 ppm after 12 days
[41] = test system: Cercospora beticola; assay: Antifungal activity against Benzimidalzole-resistant Cercospora beticola isolate Cb-19 infected in compound-treated sugar beet seedlings at 200 ppm after 12 days
[42] = test system: Cercospora beticola; assay: Antifungal activity against Benzimidalzole-resistant Cercospora beticola isolate 20-2 infected in compound-treated sugar beet seedlings at 3.1 ppm after 12 days
[43] = test system: Cercospora beticola; assay: Antifungal activity against Benzimidalzole-resistant Cercospora beticola isolate 20-2 infected in compound-treated sugar beet seedlings at 12.5 ppm after 12 days
[44] = test system: Cercospora beticola; assay: Antifungal activity against Benzimidalzole-resistant Cercospora beticola isolate 20-2 infected in compound-treated sugar beet seedlings at 50 ppm after 12 days
[45] = test system: Cercospora beticola; assay: Antifungal activity against Benzimidalzole-resistant Cercospora beticola isolate 20-2 infected in compound-treated sugar beet seedlings at 200 ppm after 12 days
[46] = test system: Cercospora beticola; assay: Antifungal activity against Benzimidalzole-sensitive Cercospora beticola isolate 18-1 infected in compound-treated sugar beet seedlings at 3.1 ppm after 12 days
[47] = test system: Cercospora beticola; assay: Antifungal activity against Benzimidalzole-resistant Cercospora beticola isolate Cb-19 infected in sugar beet seedlings at 12.5 ppm treated as foliar application 7 days prior to inoculation
[48] = test system: Cercospora beticola; assay: Antifungal activity against Benzimidalzole-resistant Cercospora beticola isolate Cb-19 infected in sugar beet seedlings at 50 ppm treated as foliar application 7 days prior to inoculation
[49] = test system: Cercospora beticola; assay: Antifungal activity against Benzimidalzole-resistant Cercospora beticola isolate Cb-19 infected in sugar beet seedlings at 200 ppm treated as foliar application 7 days prior to inoculation
[50] = test system: Cercospora beticola; assay: Antifungal activity against Benzimidalzole-resistant Cercospora beticola isolate Cb-19 infected in sugar beet seedlings at 200 ppm 24 hr-post inoculation
[51] = test system: Cercospora beticola; assay: Antifungal activity against Benzimidalzole-resistant Cercospora beticola isolate Cb-19 infected in sugar beet seedlings at 200 ppm applied as soil drench 3 days prior to inoculation
[52] = test system: Cercospora beticola; assay: Antifungal activity against Benzimidalzole-resistant Cercospora beticola isolate 18-2 infected in compound-treated sugar beet seedlings at 3.1 ppm after 12 days
[53] = test system: Cercospora beticola; assay: Antifungal activity against Benzimidalzole-resistant Cercospora beticola isolate 18-2 infected in compound-treated sugar beet seedlings at 12.5 ppm after 12 days
[54] = test system: Cercospora beticola; assay: Antifungal activity against Benzimidalzole-resistant Cercospora beticola isolate Cb-19 infected in compound-treated sugar beet seedlings at 3.1 ppm after 12 days
[55] = test system: Cercospora beticola; assay: Antifungal activity against Benzimidalzole-resistant Cercospora beticola isolate Cb-19 infected in compound-treated sugar beet seedlings at 12.5 ppm after 12 days

| Compound | Activity [6] [%] | Activity [7] [%] | Activity [8] [%] | Activity [9] [%] | Activity [10] [%] | Activity [11] [%] | Activity [13] [%] | Activity [14] [%] | Activity [15] [%] | Activity [33] [%] | Activity [34] [%] | Activity [35] [%] | Activity [38] [%] | Activity [39] [%] | Activity [40] [%] | Activity [41] [%] | Activity [42] [%] | Activity [43] [%] | Activity [44] [%] | Activity [45] [%] | also measured |
| --- | --- | --- | --- | --- | --- | --- | --- | --- | --- | --- | --- | --- | --- | --- | --- | --- | --- | --- | --- | --- | --- |
| C=CC1(C)OC(=O)N(c2cc(Cl)cc(Cl)c2)C1=O (stereo unspecified) [VINCLOZOLIN] | 90 | 100 | 100 | 77 | 100 | 100 | 82 | 100 | 100 |  |  |  |  |  |  |  |  |  |  |  | Activity [1]: 45%; Activity [2]: 75%; Activity [3]: 91%; Activity [4]: 56%; Activity [5]: 93%; Activity [12]: 31%; Activity [16]: 39%; Activity [17]: 70%; Activity [18]: 97%; Activity [19]: 100%; Activity [20]: 100%; Activity [21]: 21% |
| COC(=O)NC(=S)Nc1ccccc1NC(=S)NC(=O)OC [THIOPHANATE METHYL] | 35 | 84 | 96 | 0 | 0 | 5 | 0 | 17 | 7 | 100 | 100 | 88 | 0 | 0 | 0 | 0 | 0 | 12 | 56 | 78 | Activity [22]: 73%; Activity [23]: 13%; Activity [24]: 75%; Activity [25]: 100%; Activity [26]: 100%; Activity [27]: 51%; Activity [28]: 93%; Activity [29]: 64%; Activity [30]: 25%; Activity [31]: 84%; Activity [32]: 88%; Activity [36]: 84%; Activity [37]: 84%; Activity [46]: 68% |
| TRIPHENYLSTANNANOL |  |  |  |  |  |  |  |  |  | 100 | 100 | 88 | 100 | 100 | 100 | 100 | 69 | 94 | 100 | 100 | Activity [47]: 65%; Activity [48]: 90%; Activity [49]: 100%; Activity [50]: 0%; Activity [51]: 0%; Activity [52]: 56%; Activity [53]: 80%; Activity [54]: 60%; Activity [55]: 78%; Activity [46]: 75% |
